# From US20170008888A1 (KYORIN PHARMACEUTICAL CO., LTD., priority 2014, published 2017)
# Columns and labels:
# TAO2 = molecular target: T1, TAO2 (Homo sapiens, UniProt Q9UL54); assay: Probe-based (AX9989) kinase profiling in Jurkat lysate: TAO2; format: binding; details: read-out: TAO2 Inhibition % at indicated screening concentration; for inhibition at 1 µM: screening concentration 1 μM
# T1 construct: screened for activity against several kinases in Jurkat cells; endogenous in cells; host or cells: Jurkat cell lysate
# T1 sequence (Q9UL54 1-1235): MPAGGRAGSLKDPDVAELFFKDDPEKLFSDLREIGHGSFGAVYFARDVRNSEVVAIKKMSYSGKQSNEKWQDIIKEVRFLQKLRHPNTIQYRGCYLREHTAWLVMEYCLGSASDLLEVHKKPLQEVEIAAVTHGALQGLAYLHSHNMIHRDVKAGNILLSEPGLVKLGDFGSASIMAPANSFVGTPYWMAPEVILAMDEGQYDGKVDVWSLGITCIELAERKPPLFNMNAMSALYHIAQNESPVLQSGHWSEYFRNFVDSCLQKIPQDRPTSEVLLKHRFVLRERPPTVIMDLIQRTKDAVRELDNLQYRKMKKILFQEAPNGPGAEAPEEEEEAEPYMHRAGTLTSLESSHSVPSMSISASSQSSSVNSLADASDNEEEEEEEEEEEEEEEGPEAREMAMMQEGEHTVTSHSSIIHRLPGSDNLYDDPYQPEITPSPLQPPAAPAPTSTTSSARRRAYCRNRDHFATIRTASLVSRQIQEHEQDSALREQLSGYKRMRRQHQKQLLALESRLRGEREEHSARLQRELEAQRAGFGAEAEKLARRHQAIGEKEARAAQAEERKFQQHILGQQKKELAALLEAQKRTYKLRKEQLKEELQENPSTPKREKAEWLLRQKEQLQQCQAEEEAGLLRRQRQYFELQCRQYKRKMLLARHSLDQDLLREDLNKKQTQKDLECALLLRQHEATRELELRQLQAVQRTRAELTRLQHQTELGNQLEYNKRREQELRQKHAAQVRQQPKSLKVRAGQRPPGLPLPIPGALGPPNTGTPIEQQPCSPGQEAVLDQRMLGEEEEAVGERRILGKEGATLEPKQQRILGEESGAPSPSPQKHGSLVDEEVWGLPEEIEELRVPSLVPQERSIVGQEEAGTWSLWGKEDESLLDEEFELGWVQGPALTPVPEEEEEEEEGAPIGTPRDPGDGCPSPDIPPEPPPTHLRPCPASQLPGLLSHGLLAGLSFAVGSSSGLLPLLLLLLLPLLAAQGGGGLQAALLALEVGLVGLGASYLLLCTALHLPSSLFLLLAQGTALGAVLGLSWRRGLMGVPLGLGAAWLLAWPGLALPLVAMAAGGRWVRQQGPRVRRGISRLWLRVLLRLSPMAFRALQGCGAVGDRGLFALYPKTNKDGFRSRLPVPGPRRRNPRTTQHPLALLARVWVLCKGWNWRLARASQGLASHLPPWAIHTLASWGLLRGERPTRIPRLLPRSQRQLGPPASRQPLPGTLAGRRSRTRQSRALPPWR
# Summary of the method: (§1)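 Read-out: LC/MS intensity of desthiobiotinylated kinase active-site peptides, percent inhibition normalized to no-compound lysate. Jurkat lysate with 20 mM MnCl2 received compound for 15 min at room temperature, then 5 μM AX9989 probe; duplicates.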
# human PBMCs = assay: Human PBMC TNF-α response to endotoxin (ELISA); format: cell-based; details: 0.1 μg/ml LPS 16 h, read-out: EC50 for the inhibition of the human PBMC TNF-α response to endotoxin, ave. ± S.D.
# Protocol: Human PBMCs (Astarte Biologics, Redmond, Wash.) were seeded at 2e6 cells/ml in RPMI 1640 containing 10% (v/v) charcoal-dextran treated, heat inactivated FBS (Omega Scientific, Tarzana, Calif.), 0.05 mM 2-Mercaptoethanol (Sigma-Aldrich, St. Louis, Mo.), and 1×Pen/Strep Amphotericin B (Lonza, Allendale, N.J.). Cells were pre-treated with test compounds (10 μM down by ⅕ in a 4-point serial dilution series) for 1 h at 37° C. in a humidified atmosphere at 5% CO2. Cells were then stimulated with 0.1 μg/ml lipopolysaccharide (LPS) from E. coli 0111:B4 (EMD Millipore, Billerica, Mass.) for 16 h at 37° C. in a humidified atmosphere at 5% CO2. Supernatant was collected and a 25-fold dilution was analyzed for TNF-α concentration using an ELISA kit from Life Technologies (Grand Island, N.Y.) according to the manufacturer's instructions. Absorbance at 450 nm was read using the Synergy 2 multi-detection microplate reader (BioTek Instruments, Winooski, Vt.).
# ABL or ARG = assay: Probe-based (AX9989) kinase profiling in Jurkat lysate: ABL or ARG; format: binding
# Summary of the method: as §1
# AurA = molecular target: T2, AurA (Homo sapiens, UniProt O14965); assay: Probe-based (AX9989) kinase profiling in Jurkat lysate: AurA; format: binding; details: read-out: AurA Inhibition % at indicated screening concentration; for inhibition at 1 µM: screening concentration 1 μM
# T2 construct: screened for activity against several kinases in Jurkat cells; endogenous in cells; host or cells: Jurkat cell lysate
# T2 sequence (O14965 1-403): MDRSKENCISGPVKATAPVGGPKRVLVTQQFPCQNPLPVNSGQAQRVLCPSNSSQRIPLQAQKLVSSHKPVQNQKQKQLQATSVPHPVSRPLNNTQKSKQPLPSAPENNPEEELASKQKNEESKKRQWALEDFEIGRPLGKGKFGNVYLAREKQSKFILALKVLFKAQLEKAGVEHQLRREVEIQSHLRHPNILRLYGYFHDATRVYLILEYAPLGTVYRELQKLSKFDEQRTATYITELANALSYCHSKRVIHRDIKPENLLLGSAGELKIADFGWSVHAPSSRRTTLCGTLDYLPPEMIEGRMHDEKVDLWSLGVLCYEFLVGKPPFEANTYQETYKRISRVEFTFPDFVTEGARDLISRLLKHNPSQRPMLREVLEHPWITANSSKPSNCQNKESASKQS
# Summary of the method: as §1
# JAK1 = molecular target: T3, JAK1 (Homo sapiens, UniProt P23458); assay: Probe-based (AX9989) kinase profiling in Jurkat lysate: JAK1; format: binding; details: read-out: JAK1 Inhibition % at indicated screening concentration; for inhibition at 1 µM: screening concentration 1 μM
# T3 construct: screened for activity against several kinases in Jurkat cells; endogenous in cells; host or cells: Jurkat cell lysate
# T3 sequence (P23458 whole entry): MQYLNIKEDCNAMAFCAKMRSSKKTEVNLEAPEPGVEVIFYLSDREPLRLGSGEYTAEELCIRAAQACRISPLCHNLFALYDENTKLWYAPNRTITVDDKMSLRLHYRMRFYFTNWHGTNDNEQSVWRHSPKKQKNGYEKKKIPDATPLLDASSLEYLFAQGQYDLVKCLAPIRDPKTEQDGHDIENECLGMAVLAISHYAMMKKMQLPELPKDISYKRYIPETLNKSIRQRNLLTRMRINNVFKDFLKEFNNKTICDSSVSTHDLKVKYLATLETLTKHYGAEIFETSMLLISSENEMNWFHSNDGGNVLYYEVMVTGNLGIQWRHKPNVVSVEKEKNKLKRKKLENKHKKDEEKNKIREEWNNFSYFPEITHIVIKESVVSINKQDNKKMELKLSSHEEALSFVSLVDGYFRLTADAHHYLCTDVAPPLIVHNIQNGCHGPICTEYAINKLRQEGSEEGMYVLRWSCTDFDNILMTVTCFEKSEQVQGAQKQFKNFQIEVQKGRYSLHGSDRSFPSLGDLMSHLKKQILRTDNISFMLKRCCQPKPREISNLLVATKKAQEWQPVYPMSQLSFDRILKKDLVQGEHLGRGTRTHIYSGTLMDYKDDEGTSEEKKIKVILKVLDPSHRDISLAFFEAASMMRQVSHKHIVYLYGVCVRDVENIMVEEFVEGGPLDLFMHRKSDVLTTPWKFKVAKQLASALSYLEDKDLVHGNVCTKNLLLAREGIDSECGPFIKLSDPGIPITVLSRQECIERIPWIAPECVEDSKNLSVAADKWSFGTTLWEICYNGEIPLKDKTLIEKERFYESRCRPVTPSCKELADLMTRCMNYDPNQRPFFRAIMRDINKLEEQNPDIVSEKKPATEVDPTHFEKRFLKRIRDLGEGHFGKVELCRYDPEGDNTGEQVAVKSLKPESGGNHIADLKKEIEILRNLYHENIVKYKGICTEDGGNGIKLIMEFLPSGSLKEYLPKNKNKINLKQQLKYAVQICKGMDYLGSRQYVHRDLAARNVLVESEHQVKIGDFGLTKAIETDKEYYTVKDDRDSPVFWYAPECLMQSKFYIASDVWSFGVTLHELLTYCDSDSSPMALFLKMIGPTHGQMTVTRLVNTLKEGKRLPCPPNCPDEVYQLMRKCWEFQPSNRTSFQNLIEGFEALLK
# Summary of the method: as §1
# ACK = molecular target: T4, ACK (Homo sapiens, UniProt Q07912); assay: Probe-based (AX9989) kinase profiling in Jurkat lysate: ACK; format: binding; details: read-out: ACK Inhibition % at indicated screening concentration; for inhibition at 1 µM: screening concentration 1 μM
# T4 construct: screened for activity against several kinases in Jurkat cells; endogenous in cells; host or cells: Jurkat cell lysate
# T4 sequence (Q07912 whole entry): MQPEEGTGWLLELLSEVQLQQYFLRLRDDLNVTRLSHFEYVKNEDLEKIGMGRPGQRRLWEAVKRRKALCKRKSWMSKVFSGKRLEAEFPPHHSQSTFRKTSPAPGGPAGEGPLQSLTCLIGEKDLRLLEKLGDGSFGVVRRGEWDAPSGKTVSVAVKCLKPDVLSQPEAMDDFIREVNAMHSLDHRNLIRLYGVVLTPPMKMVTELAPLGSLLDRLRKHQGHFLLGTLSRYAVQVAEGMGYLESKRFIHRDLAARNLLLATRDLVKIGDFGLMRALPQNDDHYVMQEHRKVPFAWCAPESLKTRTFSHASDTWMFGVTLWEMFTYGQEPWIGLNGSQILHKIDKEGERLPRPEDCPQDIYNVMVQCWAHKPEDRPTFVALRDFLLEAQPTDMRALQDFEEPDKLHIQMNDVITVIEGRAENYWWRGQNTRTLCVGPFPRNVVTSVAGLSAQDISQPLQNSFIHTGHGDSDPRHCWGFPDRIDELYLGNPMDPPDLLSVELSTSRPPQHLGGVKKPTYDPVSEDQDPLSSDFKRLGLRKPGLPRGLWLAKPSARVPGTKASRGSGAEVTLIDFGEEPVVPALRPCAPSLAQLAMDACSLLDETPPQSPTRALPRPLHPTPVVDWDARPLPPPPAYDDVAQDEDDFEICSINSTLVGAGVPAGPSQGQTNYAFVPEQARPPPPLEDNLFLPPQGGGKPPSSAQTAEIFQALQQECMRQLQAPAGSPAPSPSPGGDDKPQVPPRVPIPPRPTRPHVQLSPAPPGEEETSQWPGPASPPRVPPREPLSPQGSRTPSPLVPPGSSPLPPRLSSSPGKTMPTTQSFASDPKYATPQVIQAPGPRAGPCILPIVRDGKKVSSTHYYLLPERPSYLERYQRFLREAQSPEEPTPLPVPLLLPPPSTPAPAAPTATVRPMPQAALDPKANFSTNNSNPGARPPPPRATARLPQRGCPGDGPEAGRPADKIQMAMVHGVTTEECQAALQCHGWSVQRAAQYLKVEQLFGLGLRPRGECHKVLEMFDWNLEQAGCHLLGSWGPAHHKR
# Summary of the method: as §1
# ERK5 = molecular target: T5, ERK5 (Homo sapiens, UniProt Q13164); assay: Probe-based (AX9989 acyl phosphate ATP probe) kinase profiling in Jurkat lysate: ERK5; format: binding; details: for IC50: calculated from percent inhibition and screening concentration, Jurkat lysate, AX9989 probe; for inhibition at 1 µM: screening concentration 1 μM
# T5 construct: screened for activity against several kinases in Jurkat cells; endogenous in cells; host or cells: Jurkat cell lysate
# T5 sequence (Q13164 whole entry): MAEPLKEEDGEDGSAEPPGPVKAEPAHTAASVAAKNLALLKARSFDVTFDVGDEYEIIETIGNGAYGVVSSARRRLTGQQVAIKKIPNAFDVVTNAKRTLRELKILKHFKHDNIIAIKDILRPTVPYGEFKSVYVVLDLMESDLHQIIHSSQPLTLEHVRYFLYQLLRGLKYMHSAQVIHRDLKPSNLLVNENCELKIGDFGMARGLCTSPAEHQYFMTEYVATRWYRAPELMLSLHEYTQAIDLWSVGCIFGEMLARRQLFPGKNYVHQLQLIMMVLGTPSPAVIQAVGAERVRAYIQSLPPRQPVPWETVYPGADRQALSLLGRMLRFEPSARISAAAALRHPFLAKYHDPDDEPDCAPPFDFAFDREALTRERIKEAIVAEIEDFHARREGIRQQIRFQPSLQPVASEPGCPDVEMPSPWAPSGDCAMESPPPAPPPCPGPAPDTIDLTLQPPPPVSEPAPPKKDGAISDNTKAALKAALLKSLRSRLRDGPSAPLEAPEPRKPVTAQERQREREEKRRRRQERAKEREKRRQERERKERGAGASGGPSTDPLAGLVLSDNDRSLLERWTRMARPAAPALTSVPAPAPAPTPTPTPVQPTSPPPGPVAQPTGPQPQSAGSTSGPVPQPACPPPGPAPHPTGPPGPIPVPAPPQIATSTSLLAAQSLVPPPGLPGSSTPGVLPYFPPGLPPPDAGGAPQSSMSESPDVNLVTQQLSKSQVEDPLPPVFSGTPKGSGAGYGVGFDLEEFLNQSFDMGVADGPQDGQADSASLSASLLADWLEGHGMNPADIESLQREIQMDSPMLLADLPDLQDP
# Summary of the method: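 ERK5 IC50 values came from percent inhibition at the screening concentration, measured as loss of LC/MS signal of probe-labelled active-site peptides. Compound was added for 15 min at room temperature to Jurkat lysate (5 mg/ml, 20 mM MnCl2) before labelling with AX9989 ATP acyl phosphate probe at 5 μM.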
# AMPKa1 or AMPKa2 = assay: Probe-based (AX9989) kinase profiling in Jurkat lysate: AMPKa1 or AMPKa2; format: binding
# Summary of the method: as §1
# AurB or AurC = assay: Probe-based (AX9989) kinase profiling in Jurkat lysate: AurB or AurC; format: binding
# Summary of the method: as §1
# [1] = read-out: ERK5 Inhibition % at indicated screening concentration
SMILES,inhibition at 1 µM (TAO2) [%],EC50 (human PBMCs) [nM],ABL or ARG Inhibition % at indicated screening concentration (ABL or ARG; screening concentration 1 μM),inhibition at 1 µM (AurA) [%],inhibition at 1 µM (JAK1) [%],inhibition at 1 µM (ACK) [%],IC50 (ERK5) [nM],inhibition at 1 µM (ERK5; [1]) [%],AMPKa1 or AMPKa2 Inhibition % at indicated screening concentration (AMPKa1 or AMPKa2; screening concentration 1 μM),AurB or AurC Inhibition % at indicated screening concentration (AurB or AurC; screening concentration 1 μM),inhibition at 10 µM (TAO2; screening concentration 10 μM) [%],ABL or ARG Inhibition % at indicated screening concentration (ABL or ARG; screening concentration 10 μM),inhibition at 10 µM (AurA; screening concentration 10 μM) [%],inhibition at 10 µM (JAK1; screening concentration 10 μM) [%],inhibition at 10 µM (ACK; screening concentration 10 μM) [%],"inhibition at 10 µM (ERK5; screening concentration 10 μM, read-out: ERK5 Inhibition % at indicated screening concentration) [%]",AMPKa1 or AMPKa2 Inhibition % at indicated screening concentration (AMPKa1 or AMPKa2; screening concentration 10 μM),AurB or AurC Inhibition % at indicated screening concentration (AurB or AurC; screening concentration 10 μM)
[2H]C([2H])([2H])N1C(=O)c2ccccc2N(C([2H])([2H])[2H])c2cc(Nc3ccc(C(=O)N4CCN(C(C)=O)CC4)cc3OCC)ncc21 [Compound T77],≤ 35,6330,E (E is ≦35%),≤ 35,≤ 35,≤ 35,50 to 100,> 90,E (E is ≦35%),E (E is ≦35%),,,,,,,,
CCOc1cc(C(=O)N2CCC(N3CCN(C)CC3)CC2)ccc1Nc1cc2c(cn1)N(C)C(=O)c1ccccc1N2S(C)(=O)=O [Compound T85],≤ 35,> 15000,E (E is ≦35%),≤ 35,≤ 35,≤ 35,> 500,≤ 35,E (E is ≦35%),E (E is ≦35%),,,,,,,,
CN1C(=O)c2ccccc2N(C)c2cc(N[C@H]3C[C@H](O)C3)ncc21 [Compound T88],,2530,,,,,> 500,,,,35 to 50,E (E is ≦35%),50 to 75,≤ 35,≤ 35,75 to 90,E (E is ≦35%),B (B is >75% to ≦90%)
CCOc1cc(C(=O)N2CC[C@@H](N3CCN(C)CC3)C2)ccc1Nc1cc2c(cn1)N(C)C(=O)c1ccccc1N2C1CC1 [Compound T68],≤ 35,1400,E (E is ≦35%),≤ 35,≤ 35,≤ 35,≤ 50,> 90,E (E is ≦35%),E (E is ≦35%),,,,,,,,
